Activity calls are given as the source filed them. The rule behind the calls is not given here.
System: CCRIS mutagenicity, Ames/micronucleus/aberration tests
Assay: CCRIS mutagenicity studies
[1] = Test System: AMES SALMONELLA TYPHIMURIUM, Strain/Indicator: TA100, Metabolic Activation: NONE, Method: PREINCUBATION
[2] = Test System: AMES SALMONELLA TYPHIMURIUM, Strain/Indicator: TA1535, Metabolic Activation: NONE, Method: PREINCUBATION
[3] = Test System: AMES SALMONELLA TYPHIMURIUM, Strain/Indicator: TA97, Metabolic Activation: HAMSTER, LIVER, S-9, AROCLOR 1254 (10%), Method: PREINCUBATION
[4] = Test System: AMES SALMONELLA TYPHIMURIUM, Strain/Indicator: TA97, Metabolic Activation: NONE, Method: PREINCUBATION
[5] = Test System: AMES SALMONELLA TYPHIMURIUM, Strain/Indicator: TA97, Metabolic Activation: RAT, LIVER, S-9, AROCLOR 1254 (10%), Method: PREINCUBATION
[6] = Test System: AMES SALMONELLA TYPHIMURIUM, Strain/Indicator: TA98, Metabolic Activation: HAMSTER, LIVER, S-9, AROCLOR 1254 (10%), Method: PREINCUBATION
[7] = Test System: AMES SALMONELLA TYPHIMURIUM, Strain/Indicator: TA98, Metabolic Activation: NONE, Method: PREINCUBATION
[8] = Test System: AMES SALMONELLA TYPHIMURIUM, Strain/Indicator: TA98, Metabolic Activation: RAT, LIVER, S-9, AROCLOR 1254 (10%), Method: PREINCUBATION
[9] = Test System: AMES SALMONELLA TYPHIMURIUM, Strain/Indicator: TA100, Metabolic Activation: HAMSTER, LIVER, S-9, AROCLOR 1254 (10%), Method: PREINCUBATION
[10] = Test System: AMES SALMONELLA TYPHIMURIUM, Strain/Indicator: TA100, Metabolic Activation: RAT, LIVER, S-9, AROCLOR 1254 (10%), Method: PREINCUBATION
[11] = Test System: AMES SALMONELLA TYPHIMURIUM, Strain/Indicator: TA1535, Metabolic Activation: HAMSTER, LIVER, S-9, AROCLOR 1254 (10%), Method: PREINCUBATION

CC(=O)NC[C@H](O)COc1cccc2ccccc12
mutagenic call (Test System: AMES SALMONELLA TYPHIMURIUM, Strain/Indicator: TA98, Metabolic Activation: RAT, LIVER, S-9, AROCLOR 1254, Method: PREINCUBATION): inactive; negative
mutagenic call (Test System: AMES SALMONELLA TYPHIMURIUM, Strain/Indicator: TA100, Metabolic Activation: RAT, LIVER, S-9, AROCLOR 1254, Method: PREINCUBATION): inactive; negative
mutagenic call (Test System: AMES SALMONELLA TYPHIMURIUM, Strain/Indicator: TA104, Metabolic Activation: RAT, LIVER, S-9, AROCLOR 1254, Method: PREINCUBATION): active; positive
mutagenic call (Test System: AMES SALMONELLA TYPHIMURIUM, Strain/Indicator: TA1535, Metabolic Activation: RAT, LIVER, S-9, AROCLOR 1254, Method: PREINCUBATION): inactive; negative
mutagenic call (Test System: AMES SALMONELLA TYPHIMURIUM, Strain/Indicator: TA1538, Metabolic Activation: RAT, LIVER, S-9, AROCLOR 1254, Method: PREINCUBATION): inactive; negative
mutagenic call (Test System: AMES SALMONELLA TYPHIMURIUM, Strain/Indicator: YG1021, Metabolic Activation: RAT, LIVER, S-9, AROCLOR 1254, Method: PREINCUBATION): inactive; negative
mutagenic call (Test System: AMES SALMONELLA TYPHIMURIUM, Strain/Indicator: YG1024, Metabolic Activation: RAT, LIVER, S-9, AROCLOR 1254, Method: PREINCUBATION): inactive; negative
mutagenic call (Test System: AMES SALMONELLA TYPHIMURIUM, Strain/Indicator: YG1026, Metabolic Activation: RAT, LIVER, S-9, AROCLOR 1254, Method: PREINCUBATION): inactive; negative
mutagenic call (Test System: AMES SALMONELLA TYPHIMURIUM, Strain/Indicator: YG1029, Metabolic Activation: RAT, LIVER, S-9, AROCLOR 1254, Method: PREINCUBATION): active; positive
mutagenic call (Test System: AMES SALMONELLA TYPHIMURIUM, Strain/Indicator: YG1041, Metabolic Activation: RAT, LIVER, S-9, AROCLOR 1254, Method: PREINCUBATION): inactive; negative
mutagenic call (Test System: AMES SALMONELLA TYPHIMURIUM, Strain/Indicator: YG1042, Metabolic Activation: RAT, LIVER, S-9, AROCLOR 1254, Method: PREINCUBATION): inactive; negative
mutagenic call (Test System: AMES SALMONELLA TYPHIMURIUM, Strain/Indicator: YG3003, Metabolic Activation: RAT, LIVER, S-9, AROCLOR 1254, Method: PREINCUBATION): active; positive

Clc1ccc(CCC2CO2)cc1 (stereo not drawn)
mutagenic call [1]: inactive; negative
mutagenic call (Test System: AMES SALMONELLA TYPHIMURIUM, Strain/Indicator: TA100, Metabolic Activation: NONE, Method: STANDARD PLATE): active; positive
mutagenic call [2]: inactive; negative
mutagenic call (Test System: AMES SALMONELLA TYPHIMURIUM, Strain/Indicator: TA1535, Metabolic Activation: NONE, Method: STANDARD PLATE): active; positive

N#CCc1ccccc1
mutagenic call [3]: inactive; negative
mutagenic call (Test System: AMES SALMONELLA TYPHIMURIUM, Strain/Indicator: TA97, Metabolic Activation: HAMSTER, LIVER, S-9, AROCLOR 1254 (30%), Method: PREINCUBATION): inactive; negative
mutagenic call [4]: inactive; negative
mutagenic call (Test System: AMES SALMONELLA TYPHIMURIUM, Strain/Indicator: TA97, Metabolic Activation: RAT, LIVER, S-9, AROCLOR 1254 (5 OR 30%), Method: PREINCUBATION): inactive; negative
mutagenic call [5]: inactive; negative
mutagenic call [6]: inactive; negative
mutagenic call (Test System: AMES SALMONELLA TYPHIMURIUM, Strain/Indicator: TA98, Metabolic Activation: HAMSTER, LIVER, S-9, AROCLOR 1254 (30%), Method: PREINCUBATION): inactive; negative
mutagenic call [7]: inactive; negative
mutagenic call [8]: inactive; negative
mutagenic call (Test System: AMES SALMONELLA TYPHIMURIUM, Strain/Indicator: TA98, Metabolic Activation: RAT, LIVER, S-9, AROCLOR 1254 (30%), Method: PREINCUBATION): inactive; negative
mutagenic call [9]: inactive; negative
mutagenic call (Test System: AMES SALMONELLA TYPHIMURIUM, Strain/Indicator: TA100, Metabolic Activation: HAMSTER, LIVER, S-9, AROCLOR 1254 (30%), Method: PREINCUBATION): inactive; negative
mutagenic call [1]: inactive; negative
mutagenic call [10]: inactive; negative
mutagenic call (Test System: AMES SALMONELLA TYPHIMURIUM, Strain/Indicator: TA100, Metabolic Activation: RAT, LIVER, S-9, AROCLOR 1254 (30%), Method: PREINCUBATION): inactive; negative
mutagenic call [11]: inactive; negative
mutagenic call (Test System: AMES SALMONELLA TYPHIMURIUM, Strain/Indicator: TA1535, Metabolic Activation: HAMSTER, LIVER, S-9, AROCLOR 1254 (30%), Method: PREINCUBATION): inactive; negative
mutagenic call [2]: inactive; negative
mutagenic call (Test System: AMES SALMONELLA TYPHIMURIUM, Strain/Indicator: TA1535, Metabolic Activation: RAT, LIVER, S-9, AROCLOR 1254 (30%), Method: PREINCUBATION): inactive; negative
mutagenic call (Test System: AMES SALMONELLA TYPHIMURIUM, Strain/Indicator: TA1537, Metabolic Activation: HAMSTER, LIVER, S-9, AROCLOR 1254 (10%), Method: PREINCUBATION): inactive; negative
mutagenic call (Test System: AMES SALMONELLA TYPHIMURIUM, Strain/Indicator: TA1537, Metabolic Activation: HAMSTER, LIVER, S-9, AROCLOR 1254 (30%), Method: PREINCUBATION): inactive; negative
mutagenic call (Test System: AMES SALMONELLA TYPHIMURIUM, Strain/Indicator: TA1537, Metabolic Activation: NONE, Method: PREINCUBATION): inactive; negative
mutagenic call (Test System: AMES SALMONELLA TYPHIMURIUM, Strain/Indicator: TA1537, Metabolic Activation: RAT, LIVER, S-9, AROCLOR 1254 (10%), Method: PREINCUBATION): inactive; negative
mutagenic call (Test System: AMES SALMONELLA TYPHIMURIUM, Strain/Indicator: TA1537, Metabolic Activation: RAT, LIVER, S-9, AROCLOR 1254 (30%), Method: PREINCUBATION): inactive; negative

O=[N+]([O-])c1ccc2c(c1)Cc1cccc(O)c1-2
mutagenic call [7]: active; positive
mutagenic call (Test System: AMES SALMONELLA TYPHIMURIUM, Strain/Indicator: TA98, Metabolic Activation: S-9, Method: PREINCUBATION): active; positive

CCN(CC)c1cccc(O)c1
mutagenic call [3]: active; positive
mutagenic call [4]: inactive; negative
mutagenic call [5]: active; positive
mutagenic call [6]: active; positive
mutagenic call [7]: inactive; negative
mutagenic call [8]: active; positive
mutagenic call [9]: active; positive
mutagenic call [1]: inactive; negative
mutagenic call [10]: inactive; negative
mutagenic call [11]: inactive; negative
mutagenic call [2]: inactive; negative
mutagenic call (Test System: AMES SALMONELLA TYPHIMURIUM, Strain/Indicator: TA1535, Metabolic Activation: RAT, LIVER, S-9, AROCLOR 1254 (10%), Method: PREINCUBATION): inactive; negative

[Cl][Pb][Cl]
mutagenic call (End Point: IN VITRO MICRONUCLEUS, Test System: HAMSTER V79 CELLS, Metabolic Activation: NONE): active; positive (aneugenic above 1.1 um)
mutagenic call (Test System: CHINESE HAMSTER OVARY, Strain/Indicator: CHO-AS52/6-THIOGUANINE, Metabolic Activation: NONE): active; positive
mutagenic call (Test System: CHINESE HAMSTER V-79, Strain/Indicator: SP5 V-79 (HPRT)/6-THIOGUANINE, Metabolic Activation: NONE, Method: STANDARD PLATE): inactive; negative
mutagenic call (Test System: CHINESE HAMSTER V-79, Strain/Indicator: SPD8 V-79 (HPRT)/6-THIOGUANINE, Metabolic Activation: NONE, Method: STANDARD PLATE): inactive; negative

From PubChem BioAssay AID1259407 (Chemical Carcinogenesis Research Information System (CCRIS), 2018)
